Assay results: patent US9168286B2, “Methods and compositions for use in treatment of patients with autoantibody positive disease” (Human Genome Sciences, Inc., priority 2005, dated 2015)

Experiments:
subjects with SLE [1] = experiment: Phase 2 clinical trial of belimumab in SLE with extension and continuation trial: biologic markers (B cells, autoantibodies, Ig isotypes, C3/C4); format: in vivo, human; parameters: median percent change in CD20+ B cells (reduction) / median percent change in plasmacytoid B cells (CD20+/CD138+) (reduction) / median percent change in activated B cells (CD20+/CD69+) (reduction) / percent of subjects with significant anti-dsDNA reduction / IgE reduction: concentration or dose not given beside the values; details: for percent of subjects with significant anti-dsDNA reduction: non-responders; for IgE reduction: subjects with elevated IgE (>114 KU/L) at baseline; for median percent IgG reduction: weeks 52-128
Protocol: Of the patients who completed 52 weeks of treatment in the randomized, double-blind, placebo-controlled Phase 2 trial (see example 1), 96% (351/364) elected to enter the 24-week extension phase of the trial, and 92% (321/351) of those who entered completed it.
Serum autoantibodies, Ig isotypes and complement (C3, C4) were measured at 1-3 month intervals. In addition, the population with baseline serologic activity (ANA ≧1:80 or anti-dsDNA Ab ≧30IU; 72% of the original cohort herein called seropositive patients or seropositive subjects) was evaluated for SS, physician global assessment (PGA 0-3 units), BILAG, […] Functional Index (SFI) and autoantibody status at 1-3 month intervals.

subjects with RA [2] = experiment: Phase 2 clinical trial of belimumab in rheumatoid arthritis: ACR20 response; format: in vivo, human
Excerpt: (§1) ACR20 response increased to approximately 40% at Week 48.

subjects with RA [3] = experiment: Phase 2 clinical trial of belimumab in rheumatoid arthritis: biomarkers; format: in vivo, human
Excerpt: as §1

[4] = Phase 2 clinical trial of belimumab in rheumatoid arthritis: serum concentrations; details: human, in vivo
Excerpt: as §1

subjects with SLE [5] = experiment: Phase 2 clinical trial of belimumab in SLE: safety
Protocol: 449 subjects with SLE by ACR criteria (Tan et al., Arthritis Rheum. 25:1271-7, (1982); and Hochberg et al., Arthritis Rheum. 40:1725, (1997)), with a history of measurable autoantibodies and SELENA SLEDAI score ≧4 at screening were dosed.
Subjects who completed the 52-week treatment period were given the option to continue the study for a 24-week extension period. […] B-cells were analyzed every 1-2 months by 4-color FACS (CD19, CD20, CD27, CD69, CD38, CD138 and CD45). Serum autoantibody, including anti-dsDNA Ab, Ig isotypes, total protein, and albumin levels were obtained at the same visits. The likelihood ratio chi-squared, Wilcoxon test or t-test was used to analyze the changes in the biological markers.

[6] = week 52, all treatment groups combined, p<0.002
[7] = week 76, all treatment groups combined

belimumab: an antibody that neutralizes Neutrokine-alpha protein
increase of C3 (subjects with SLE [1]; low baseline C3, week 128): 18% | increase of C4 (subjects with SLE [1]; low baseline C4 (n=180), week 52, p=0.0126, placebo 14%): 33% | increase of C4 (subjects with SLE [1]; low baseline C4, week 76): 46% | increase of C4 (subjects with SLE [1]; low baseline C4, week 96): 57% | increase of C4 (subjects with SLE [1]; low baseline C4, week 128): 67% | Anti-Sm reverted from positive at baseline to negative (subjects with SLE [1]; n=85, weeks 52-128, placebo week 52=5%): 26-36% | subjects with hypergammaglobulinemia (>1618 mg/dL) at baseline normalized (subjects with SLE [1]; n=125, week 52, placebo week 52=17%): 45% | subjects with hypergammaglobulinemia (>1618 mg/dL) at baseline normalized (subjects with SLE [1]; n=125, week 128): 57% | RNP reverted from positive at baseline to negative (subjects with SLE [1]; n=205, weeks 52-128, placebo week 52=2%): 9-27% | percent of subjects with significant anti-dsDNA reduction (subjects with SLE [1]; week 52): 19% | percent of subjects with significant anti-dsDNA reduction (subjects with SLE [1]; week 128): 32% | C4 complement levels, median percent change from baseline (subjects with SLE [1]; patients with low C4 at baseline, each measurement during weeks 4-52, p≦0.01): significant increase | anti-dsDNA titer, median percent change from baseline (subjects with SLE [1]; subjects with anti-dsDNA ≧30 IU/ml at entry, as early as week 4, through week 52, vs placebo): significant reduction | IgE reduction (subjects with SLE [1]; week 52): 44% | IgE reduction (subjects with SLE [1]; week 128): 57% | median percent IgG reduction (subjects with SLE [1]; subjects with elevated IgG at baseline): 14-18% | median percent IgG reduction (subjects with SLE [1]; subjects with normal IgG at baseline): 7-8% | cell counts of CD19+, naïve, activated and plasmacytoid B cells, median percent change from baseline (subjects with SLE [1]; week 24, all treated combined vs placebo, p<0.0001): significant reduction | CD19+ B cells and naïve B cells (CD20+/CD27−) (subjects with SLE [1]; week 52): significantly reduced | memory cell populations (subjects with SLE [1]; week 52): preserved | median percent change in CD20+ B cells (reduction) (subjects with SLE [1]; [6]): 54% | median percent change in plasmacytoid B cells (CD20+/CD138+) (reduction) (subjects with SLE [1]; [6]): 62% | reduction of anti-dsDNA Ab (subjects with SLE [1]; week 52, baseline positive, p<0.002, placebo 9%): 30% | median percent change in activated B cells (CD20+/CD69+) (reduction) (subjects with SLE [1]; week 52, p<0.002): 70% | median reduction of serum IgE (subjects with SLE [1]; week 52, placebo 0%): 34% | median reduction of serum IgA (subjects with SLE [1]; week 52, placebo 3%): 14% | median reduction of serum IgM (subjects with SLE [1]; week 52, placebo 5%): 29% | subjects with significant anti-dsDNA reduction (≧50% reduction or become negative) (subjects with SLE [1]; week 52, placebo 17%): 30% | median reduction of serum IgG (subjects with SLE [1]; week 52, placebo up 3%): 10% | increase of plasma cells (CD20−/CD138+) over baseline (subjects with SLE [1]; week 52, placebo/standard of care 30.6%, p=0.02): 72.5% | additional anti-dsDNA+ subjects converted to negative (subjects with SLE [1]; week 76): 3 subjects | median reduction of serum IgA (subjects with SLE [1]; week 76): 15% | median reduction of serum IgE (subjects with SLE [1]; week 76): 35% | median reduction of serum IgG (subjects with SLE [1]; week 76): 12% | median reduction of serum IgM (subjects with SLE [1]; week 76): 34% | reduction of anti-dsDNA Ab (subjects with SLE [1]; week 76): 28% | median percent change in CD20+ B cells (reduction) (subjects with SLE [1]; [7]): 61% | median percent change in activated B cells (CD20+/CD69+) (reduction) (subjects with SLE [1]; [7]): 84% | median percent change in plasmacytoid B cells (CD20+/CD138+) (reduction) (subjects with SLE [1]; [7]): 60% | median reduction of serum IgA (subjects with SLE [1]; week 104): 14% | median reduction of serum IgE (subjects with SLE [1]; week 104): 37% | median reduction of serum IgG (subjects with SLE [1]; week 104): 10% | median reduction of serum IgM (subjects with SLE [1]; week 104): 35% | median reduction of serum IgA (subjects with SLE [1]; week 128): 14% | median reduction of serum IgE (subjects with SLE [1]; week 128): 41% | median reduction of serum IgG (subjects with SLE [1]; week 128): 9% | median reduction of serum IgM (subjects with SLE [1]; week 128): 40% | subjects with significant anti-dsDNA reduction (≧50% reduction or become negative) (subjects with SLE [1]; week 128): 47% | ACR20 response (subjects with RA [2]; 1 mg/kg treatment group vs placebo, 24 weeks, p=0.0097): statistically superior | dose-response relationship for efficacy, safety, biomarker effects (subjects with RA [2]; 1, 4, 10 mg/kg): not apparent | ACR20 response (subjects with RA [2]; Week 48 (extension period)): approximately 40% | ACR20 response (subjects with RA [2]; all active treatment groups combined vs placebo, 24 weeks, p=0.0213): statistically superior | symptoms associated with rheumatoid arthritis, by subgroup (subjects with RA [2]; patients with DAS28 >5.1, no previous anti-TNF therapy, and/or rheumatoid factor, IV days 0, 14, 28 then every four weeks until week 24): more likely to ameliorate symptoms associated with rheumatoid arthritis | ACR20 responses in subgroups (subjects with RA [2]; subjects with autoantibody positive disease (RF or anti-CCP) or positive for CRP at baseline): improved ACR20 responses | Effects on biomarkers (subjects with RA [3]; continued treatment in the extension period): increased or were sustained | CD20+ B-cells (subjects with RA [3]; human, in vivo): statistically significant reductions | RF (rheumatoid factor) (subjects with RA [3]; human, in vivo): statistically significant reductions | activated B-cells (subjects with RA [3]; human, in vivo): statistically significant reductions | memory cells (subjects with RA [3]; human, in vivo): increased within first month of treatment and slowly declined with continued treatment | naïve B-cells (subjects with RA [3]; human, in vivo): statistically significant reductions | Serum concentrations [4]: within the range expected based on the Phase 1 data | effect of concomitant medications (methotrexate, leflunomide or hydroxychloroquine) on belimumab exposures [4]: no significant effect | Immunogenicity to belimumab, number of subjects (subjects with SLE [5]; 1 mg/kg): 1 subject | Infusion reactions (subjects with SLE [5]; human, in vivo): rare, with only 1 severe event reported | tolerability (subjects with SLE [5]; human, in vivo): well tolerated | subjects with pleurisy (subjects with SLE [5]; placebo 8%, p<0.05): 3.3%
